# Assay results published in ChEMBL document CHEMBL3885881, “DrugMatrix”.
# Organism: Rattus norvegicus
# Experiment: DrugMatrix - Regimen: Daily Repeat
# Assay type: toxicity, organism-based, Sprague-Dawley
# Design: regimen Daily Repeat, gender Male, age 6-8 weeks
# Details: in vivo, po, route oral GAVAGE, vehicle 100 % SALINE; for ABSOLUTE BASOPHIL / ABSOLUTE EOSINOPHIL / ABSOLUTE LYMPHOCYTE / ABSOLUTE MONOCYTE / ABSOLUTE SEGMENTED NEUTROPHIL / BASOPHIL / EOSINOPHIL / ERYTHROCYTE COUNT / HEMATOCRIT / HEMOGLOBIN / LEUKOCYTE COUNT / LYMPHOCYTE / MEAN CORPUSCULAR HEMOGLOBIN / MEAN CORPUSCULAR HEMOGLOBIN CONCENTRATION / MEAN CORPUSCULAR VOLUME / MONOCYTE / NEUTROPHIL / NUCLEATED RED BLOOD CELLS / PLATELET COUNT: tissue Blood; for ALANINE AMINOTRANSFERASE / ALBUMIN / ALKALINE PHOSPHATASE / ASPARTATE AMINOTRANSFERASE / BLOOD UREA NITROGEN / CARBON DIOXIDE / CHLORIDE / CHOLESTEROL / CREATINE PHOSPHOKINASE / CREATININE / GLUCOSE / LACTATE DEHYDROGENASE / LIPASE / PHOSPHORUS / POTASSIUM / SODIUM / TOTAL BILIRUBIN / TOTAL PROTEIN / URIC ACID: tissue Plasma
# [1] = 0 mg/kg, 72 h, dose level Control, time 3 day
# [2] = 0 mg/kg, 120 h, dose level Control, time 5 day
# [3] = 34 mg/kg, 72 h, dose level High, time 3 day
# [4] = 34 mg/kg, 120 h, dose level High, time 5 day
compound,measurement,setting,value
CCN(CC)N=O [N-NITROSODIETHYLAMINE],ABSOLUTE BASOPHIL,[1],0 CELLS/uL
same,ABSOLUTE EOSINOPHIL,[1],0 CELLS/uL
same,ABSOLUTE LYMPHOCYTE,[1],8960.83 CELLS/uL
same,ABSOLUTE MONOCYTE,[1],103.5 CELLS/uL
same,ABSOLUTE SEGMENTED NEUTROPHIL,[1],635.67 CELLS/uL
same,BASOPHIL,[1],0%
same,EOSINOPHIL,[1],0%
same,ERYTHROCYTE COUNT,[1],5.09 x10E6/uL
same,HEMATOCRIT,[1],31.8%
same,HEMOGLOBIN,[1],12.42 G/DL
same,LEUKOCYTE COUNT,[1],9.7 x10E3/uL
same,LYMPHOCYTE,[1],92.33%
same,MEAN CORPUSCULAR HEMOGLOBIN,[1],24.4 pg
same,MEAN CORPUSCULAR HEMOGLOBIN CONCENTRATION,[1],39.07 G/DL
same,MEAN CORPUSCULAR VOLUME,[1],62.47 fL
same,MONOCYTE,[1],1%
same,NEUTROPHIL,[1],6.67%
same,NUCLEATED RED BLOOD CELLS,[1],0 /100WBC
same,PLATELET COUNT,[1],466.5 x10E3/uL
same,ALANINE AMINOTRANSFERASE,[1],83.33 u/L
same,ALBUMIN,[1],4.33 G/DL
same,ALKALINE PHOSPHATASE,[1],340.5 u/L
same,ASPARTATE AMINOTRANSFERASE,[1],189.83 u/L
same,BLOOD UREA NITROGEN,[1],15.83 mg/dL
same,CARBON DIOXIDE,[1],38 mmol/L
same,CHLORIDE,[1],96.83 MEQ/L
same,CHOLESTEROL,[1],72.5 mg/dL
same,CREATINE PHOSPHOKINASE,[1],370.67 u/L
same,CREATININE,[1],0.28 mg/dL
same,GLUCOSE,[1],182.83 mg/dL
same,LACTATE DEHYDROGENASE,[1],513.5 u/L
same,LIPASE,[1],9.83 u/L
same,PHOSPHORUS,[1],11.32 mg/dL
same,POTASSIUM,[1],6.32 MEQ/L
same,SODIUM,[1],145.12 MEQ/L
same,TOTAL BILIRUBIN,[1],0.2 mg/dL
same,TOTAL PROTEIN,[1],6.4 G/DL
same,URIC ACID,[1],2.03 mg/dL
same,ABSOLUTE BASOPHIL,[2],0 CELLS/uL
same,ABSOLUTE EOSINOPHIL,[2],43.83 CELLS/uL
same,ABSOLUTE LYMPHOCYTE,[2],7316.67 CELLS/uL
same,ABSOLUTE MONOCYTE,[2],87.33 CELLS/uL
same,ABSOLUTE SEGMENTED NEUTROPHIL,[2],418.83 CELLS/uL
same,BASOPHIL,[2],0%
same,EOSINOPHIL,[2],0.33%
same,ERYTHROCYTE COUNT,[2],4.77 x10E6/uL
same,HEMATOCRIT,[2],29.93%
same,HEMOGLOBIN,[2],11.48 G/DL
same,LEUKOCYTE COUNT,[2],7.87 x10E3/uL
same,LYMPHOCYTE,[2],93.5%
same,MEAN CORPUSCULAR HEMOGLOBIN,[2],24.17 pg
same,MEAN CORPUSCULAR HEMOGLOBIN CONCENTRATION,[2],38.57 G/DL
same,MEAN CORPUSCULAR VOLUME,[2],62.68 fL
same,MONOCYTE,[2],1%
same,NEUTROPHIL,[2],5.17%
same,NUCLEATED RED BLOOD CELLS,[2],0 /100WBC
same,PLATELET COUNT,[2],377.67 x10E3/uL
same,ALANINE AMINOTRANSFERASE,[2],89 u/L
same,ALBUMIN,[2],4.42 G/DL
same,ALKALINE PHOSPHATASE,[2],275.17 u/L
same,ASPARTATE AMINOTRANSFERASE,[2],204.17 u/L
same,BLOOD UREA NITROGEN,[2],15.33 mg/dL
same,CARBON DIOXIDE,[2],36.83 mmol/L
same,CHLORIDE,[2],94.67 MEQ/L
same,CHOLESTEROL,[2],92 mg/dL
same,CREATINE PHOSPHOKINASE,[2],514.5 u/L
same,CREATININE,[2],0.24 mg/dL
same,GLUCOSE,[2],184.17 mg/dL
same,LACTATE DEHYDROGENASE,[2],648.67 u/L
same,LIPASE,[2],10 u/L
same,PHOSPHORUS,[2],12.33 mg/dL
same,POTASSIUM,[2],6.51 MEQ/L
same,SODIUM,[2],144.63 MEQ/L
same,TOTAL BILIRUBIN,[2],0.18 mg/dL
same,TOTAL PROTEIN,[2],6.7 G/DL
same,URIC ACID,[2],2.33 mg/dL
same,ABSOLUTE BASOPHIL,[3],0 CELLS/uL
same,ABSOLUTE EOSINOPHIL,[3],38.67 CELLS/uL
same,ABSOLUTE LYMPHOCYTE,[3],8206.67 CELLS/uL
same,ABSOLUTE MONOCYTE,[3],88.33 CELLS/uL
same,ABSOLUTE SEGMENTED NEUTROPHIL,[3],499.67 CELLS/uL
same,BASOPHIL,[3],0%
same,EOSINOPHIL,[3],0.33%
same,ERYTHROCYTE COUNT,[3],6.73 x10E6/uL
same,HEMATOCRIT,[3],41.13%
same,HEMOGLOBIN,[3],15.77 G/DL
same,LEUKOCYTE COUNT,[3],8.83 x10E3/uL
same,LYMPHOCYTE,[3],93.33%
same,MEAN CORPUSCULAR HEMOGLOBIN,[3],23.47 pg
same,MEAN CORPUSCULAR HEMOGLOBIN CONCENTRATION,[3],38.37 G/DL
same,MEAN CORPUSCULAR VOLUME,[3],61.23 fL
same,MONOCYTE,[3],1%
same,NEUTROPHIL,[3],5.33%
same,NUCLEATED RED BLOOD CELLS,[3],0 /100WBC
same,PLATELET COUNT,[3],912.67 x10E3/uL
same,ALANINE AMINOTRANSFERASE,[3],112.33 u/L
same,ALBUMIN,[3],4.2 G/DL
same,ALKALINE PHOSPHATASE,[3],292.67 u/L
same,ASPARTATE AMINOTRANSFERASE,[3],218.67 u/L
same,BLOOD UREA NITROGEN,[3],13 mg/dL
same,CARBON DIOXIDE,[3],38.67 mmol/L
same,CHLORIDE,[3],96.33 MEQ/L
same,CHOLESTEROL,[3],79.33 mg/dL
same,CREATINE PHOSPHOKINASE,[3],309.67 u/L
same,CREATININE,[3],0.53 mg/dL
same,GLUCOSE,[3],161.33 mg/dL
same,LACTATE DEHYDROGENASE,[3],311 u/L
same,LIPASE,[3],9.67 u/L
same,PHOSPHORUS,[3],11.2 mg/dL
same,POTASSIUM,[3],6.34 MEQ/L
same,SODIUM,[3],146.93 MEQ/L
same,TOTAL BILIRUBIN,[3],0.2 mg/dL
same,TOTAL PROTEIN,[3],6.03 G/DL
same,URIC ACID,[3],2.2 mg/dL
same,ABSOLUTE BASOPHIL,[4],0 CELLS/uL
same,ABSOLUTE EOSINOPHIL,[4],0 CELLS/uL
same,ABSOLUTE LYMPHOCYTE,[4],7416.33 CELLS/uL
same,ABSOLUTE MONOCYTE,[4],148.33 CELLS/uL
same,ABSOLUTE SEGMENTED NEUTROPHIL,[4],435.33 CELLS/uL
same,BASOPHIL,[4],0%
same,EOSINOPHIL,[4],0%
same,ERYTHROCYTE COUNT,[4],6.58 x10E6/uL
same,HEMATOCRIT,[4],41.63%
same,HEMOGLOBIN,[4],15.6 G/DL
same,LEUKOCYTE COUNT,[4],8 x10E3/uL
same,LYMPHOCYTE,[4],94%
same,MEAN CORPUSCULAR HEMOGLOBIN,[4],23.7 pg
same,MEAN CORPUSCULAR HEMOGLOBIN CONCENTRATION,[4],37.47 G/DL
same,MEAN CORPUSCULAR VOLUME,[4],63.27 fL
same,MONOCYTE,[4],1.67%
same,NEUTROPHIL,[4],4.33%
same,NUCLEATED RED BLOOD CELLS,[4],0 /100WBC
same,PLATELET COUNT,[4],607 x10E3/uL
same,ALANINE AMINOTRANSFERASE,[4],90.67 u/L
same,ALBUMIN,[4],3.93 G/DL
same,ALKALINE PHOSPHATASE,[4],310.33 u/L
same,ASPARTATE AMINOTRANSFERASE,[4],148 u/L
same,BLOOD UREA NITROGEN,[4],13 mg/dL
same,CARBON DIOXIDE,[4],37 mmol/L
same,CHLORIDE,[4],95.67 MEQ/L
same,CHOLESTEROL,[4],85.67 mg/dL
same,CREATINE PHOSPHOKINASE,[4],246 u/L
same,CREATININE,[4],0.16 mg/dL
same,GLUCOSE,[4],139.33 mg/dL
same,LACTATE DEHYDROGENASE,[4],200 u/L
same,LIPASE,[4],13 u/L
same,PHOSPHORUS,[4],11.33 mg/dL
same,POTASSIUM,[4],6.73 MEQ/L
same,SODIUM,[4],144.83 MEQ/L
same,TOTAL BILIRUBIN,[4],0.23 mg/dL
same,TOTAL PROTEIN,[4],5.43 G/DL
same,URIC ACID,[4],1.9 mg/dL
